Experimental findings from US20200384018A1, “OZONE NANOBUBBLE ANTICANCER AGENT” (OPT CREATION INC., priority 2017, published 2020) are described below.

This experiment concerns MIAPaCa-2 cells. In words: Combination of NAnO3 and existing anticancer agents, sequential administration (neutral red). Format: cell-based, human. The settings on record: exposed only to the anticancer agent (doxorubicin 0.1, gemcitabine 0.04, cisplatin 4 μg/mL); DMEM medium = 100%. Here is the method:
A cell suspension was prepared such that MIAPaCa-2 viable cell count became 5×10^4 cells/mL. The cell suspension (1 mL) was seeded in each of wells of a 12 well plate, allowed to stand in a CO2 incubator set at 37° C. and 5% CO2 and cultured for 18 hours or more to allow the cells to adhere to the bottom of the plate. After the completion of culture, the medium was removed from the plate and the following test-substance solutions were added.
Test-substance solutions 1 to 6 were prepared in the same manner as in Section 2.1 and used. Test-substance solutions 7 to 9 were prepared by adding each anticancer agent/DMEM medium (0.9 mL) and, in several minutes later, adding 0.1 mL of NAnO3. The same operation was also repeated after 48 hours and 72 hours.
After the completion of culture, the medium was removed and washing with PBS (−) was made. To each of the wells of the plate, a 0.005% neutral red (NR) (Kanto Chemical Co., Inc., Lot No. 806W2294) D-MEM solution (1 mL) was added and the plate was allowed to stand in a CO2 incubator for 3 hours. After 3 hours, the NR solution was removed and washing was made with PBS (−). To each plate, 1 mL of a fixation/extraction liquid (ethanol 50% (v/v), glacial acetic acid 1% (v/v) aqueous solution) was added and shaking was made for 10 minutes. Thereafter, the value of the absorbance was measured by using a microplate reader (EL×800, BIO-TEC INSTRUMENTS, INC., wavelength: 540 nm).
Provided that the absorbance of DMEM medium (test-substance solution 1) was regarded as 100%, the cell survival rate (%) of each test group was obtained (FIG. 4).

Structures can show the parent of a compound that is named as a salt.

`COc1cccc2c1C(=O)c1c(O)c3c(c(O)c1C2=O)C[C@@](O)(C(=O)CO)C[C@@H]3O[C@H]1C[C@H](N)[C@H](O)[C@H](C)O1` [doxorubicin, doxorubicin hydrochloride]: the cell survival rate is recorded as 51.1%. Under `N.N.[Cl][Pt][Cl]` [cisplatin] stands 47.5%; under `Nc1ccn([C@@H]2O[C@H](CO)[C@@H](O)C2(F)F)c(=O)n1` [gemcitabine, gemcitabine hydrochloride], 44.8%.
